From patent publication US11370798B2 (Vertex Pharmaceuticals Incorporated, priority 2012, dated 2022) come the findings set out here.

The test system of the test is HCT116 colorectal cancer cells. The test can be described thus: Cisplatin sensitization assay (96 h cell viability MTS).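 Note: Test-compound concentration that lowers the Cisplatin IC50 by a set fold.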 The test is classed as cell-based. Conditions: compound and Cisplatin added simultaneously, Cisplatin sensitization value. In outline: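 Viability read by MTS (1 h at 37° C) after 96 h co-exposure at 37° C, 5% CO2. Test compound and cisplatin were dosed simultaneously in a full concentration matrix, each 2-fold serially diluted from 10 μM final; sensitization values binned in μM.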

With `CN(C)CCCNC(=O)C1CCN(c2c(F)cncc2NC(=O)c2c(N)nn3cc(F)cnc23)CC1` [I-G-26, 2-amino-N-(4-(4-((3-(dimethylamino)propyl)carbamoyl)piperidin-1-yl)-5-fluoropyridin-3-yl)-6-fluoropyrazolo[1,5-a]pyrimidine-3-carboxamide], the “Cisplatin Sensitization Assay” value was “++ (Cisplatin sensitization value>0.02 μM but <0.2 μM)”.

`CC1(C)CN(C(=O)C2CCN(c3c(F)cncc3NC(=O)c3c(N)nn4cc(F)cnc34)CC2)CCN1` [I-G-27, 2-amino-N-(4-(4-(3,3-dimethylpiperazine-1-carbonyl)piperidin-1-yl)-5-fluoropyridin-3-yl)-6-fluoropyrazolo[1,5-a]pyrimidine-3-carboxamide]: the “Cisplatin Sensitization Assay” value is recorded as “++ (Cisplatin sensitization value>0.02 μM but <0.2 μM)”.

For the compound `Nc1nn2cc(F)cnc2c1C(=O)Nc1cncc(F)c1N1CCC(C(=O)N2CCNC3(CC3)C2)CC1` [I-G-28, N-(4-(4-(4,7-diazaspiro[2.5]octane-7-carbonyl)piperidin-1-yl)-5-fluoropyridin-3-yl)-2-amino-6-fluoropyrazolo[1,5-a]pyrimidine-3-carboxamide], the “Cisplatin Sensitization Assay” value is on record as “+++ (Cisplatin sensitization value of <0.02 μM)”.

Take `CN(C)C(=O)C1CCN(c2c(F)cncc2NC(=O)c2c(N)nn3cc(F)cnc23)CC1` [I-G-29, 2-amino-N-(4-(4-(dimethylcarbamoyl)piperidin-1-yl)-5-fluoropyridin-3-yl)-6-fluoropyrazolo[1,5-a]pyrimidine-3-carboxamide]: the “Cisplatin Sensitization Assay” value is recorded as “+++ (Cisplatin sensitization value of <0.02 μM)”.

For the compound `CN(C)CCNC(=O)C1CCN(c2c(F)cncc2NC(=O)c2c(N)nn3cc(F)cnc23)CC1` [I-G-30, 2-amino-N-(4-(4-((2-(dimethylamino)ethyl)carbamoyl)piperidin-1-yl)-5-fluoropyridin-3-yl)-6-fluoropyrazolo[1,5-a]pyrimidine-3-carboxamide], the “Cisplatin Sensitization Assay” value was “+++ (Cisplatin sensitization value of <0.02 μM)”.

Take `CN(C)CCN(C)C(=O)C1CCN(c2c(F)cncc2NC(=O)c2c(N)nn3cc(F)cnc23)CC1` [I-G-31, 2-amino-N-(4-(4-((2-(dimethylamino)ethyl)(methyl)carbamoyl)piperidin-1-yl)-5-fluoropyridin-3-yl)-6-fluoropyrazolo[1,5-a]pyrimidine-3-carboxamide]: the “Cisplatin Sensitization Assay” value was “+++ (Cisplatin sensitization value of <0.02 μM)”.

As to `Nc1nn2cc(F)cnc2c1C(=O)Nc1cncc(F)c1N1CCC(C(=O)N2CCN(C3COC3)CC2)CC1` [I-G-32, 2-amino-6-fluoro-N-[5-fluoro-4-[4-[4-(oxetan-3-yl)piperazine-1-carbonyl]-1-piperidyl]-3-pyridyl]pyrazolo[1,5-a]pyrimidine-3-carboxamide], the “Cisplatin Sensitization Assay” value was “+++ (Cisplatin sensitization value of <0.02 μM)”.

For the compound `CNC(=O)C1CCN(c2c(F)cncc2NC(=O)c2c(N)nn3cc(F)cnc23)CC1` [I-G-33, 2-amino-6-fluoro-N-(5-fluoro-4-(4-(methylcarbamoyl)piperidin-1-yl)pyridin-3-yl)pyrazolo[1,5-a]pyrimidine-3-carboxamide], the “Cisplatin Sensitization Assay” value is “+++ (Cisplatin sensitization value of <0.02 μM)”.

As to `CNC1CN(C(=O)C2CCN(c3c(F)cncc3NC(=O)c3c(N)nn4cc(F)cnc34)CC2)C1` [I-G-34, 2-amino-6-fluoro-N-(5-fluoro-4-(4-(3-(methylamino)azetidine-1-carbonyl)piperidin-1-yl)pyridin-3-yl)pyrazolo[1,5-a]pyrimidine-3-carboxamide], the “Cisplatin Sensitization Assay” value was “+++ (Cisplatin sensitization value of <0.02 μM)”.

Take `Nc1nn2cc(F)cnc2c1C(=O)Nc1cncc(F)c1N1CCC(C(=O)N2CCN(C3CCC3)CC2)CC1` [I-G-35, 2-amino-N-(4-(4-(4-cyclobutylpiperazine-1-carbonyl)piperidin-1-yl)-5-fluoropyridin-3-yl)-6-fluoropyrazolo[1,5-a]pyrimidine-3-carboxamide]: the “Cisplatin Sensitization Assay” value is “+++ (Cisplatin sensitization value of <0.02 μM)”.

On to `Nc1nn2cc(F)cnc2c1C(=O)Nc1cncc(F)c1N1CCC(C(=O)N2CCOCC2)CC1` [I-G-36, 2-amino-6-fluoro-N-(5-fluoro-4-(4-(morpholine-4-carbonyl)piperidin-1-yl)pyridin-3-yl)pyrazolo[1,5-a]pyrimidine-3-carboxamide], for which the “Cisplatin Sensitization Assay” value was “+++ (Cisplatin sensitization value of <0.02 μM)”.

Take `Nc1nn2cc(F)cnc2c1C(=O)Nc1cncc(F)c1N1CCC(C(=O)NC2COC2)CC1` [I-G-37, 2-amino-6-fluoro-N-(5-fluoro-4-(4-(oxetan-3-ylcarbamoyl)piperidin-1-yl)pyridin-3-yl)pyrazolo[1,5-a]pyrimidine-3-carboxamide]: the “Cisplatin Sensitization Assay” value is “++ (Cisplatin sensitization value>0.02 μM but <0.2 μM)”.

Turning to `CN1CCN(C(=O)C2CCN(c3c(F)cncc3NC(=O)c3c(N)nn4cc(F)cnc34)CC2)CC12CC2` [I-G-38, 2-amino-6-fluoro-N-(5-fluoro-4-(4-(4-methyl-4,7-diazaspiro[2.5]octane-7-carbonyl)piperidin-1-yl)pyridin-3-yl)pyrazolo[1,5-a]pyrimidine-3-carboxamide], the “Cisplatin Sensitization Assay” value is reported as “+++ (Cisplatin sensitization value of <0.02 μM)”.

In the case of `COCCN(C)C(=O)C1CCN(c2c(F)cncc2NC(=O)c2c(N)nn3cc(F)cnc23)CC1` [I-G-40, 2-amino-6-fluoro-N-(5-fluoro-4-(4-((2-methoxyethyl)(methyl)carbamoyl)piperidin-1-yl)pyridin-3-yl)pyrazolo[1,5-a]pyrimidine-3-carboxamide], the “Cisplatin Sensitization Assay” value is “+++ (Cisplatin sensitization value of <0.02 μM)”.

Consider `Nc1nn2cc(F)cnc2c1C(=O)Nc1cncc(F)c1N1CCC(C(=O)N2CC(O)C2)CC1` [I-G-41, 2-amino-6-fluoro-N-(5-fluoro-4-(4-(3-hydroxyazetidine-1-carbonyl)piperidin-1-yl)pyridin-3-yl)pyrazolo[1,5-a]pyrimidine-3-carboxamide], for which the “Cisplatin Sensitization Assay” value is listed as “+++ (Cisplatin sensitization value of <0.02 μM)”.

For the compound `Nc1nn2cc(F)cnc2c1C(=O)Nc1cncc(F)c1N1CCC(C(=O)NCCN2CCC2)CC1` [I-G-42, 2-amino-N-(4-(4-((2-(azetidin-1-yl)ethyl)carbamoyl)piperidin-1-yl)-5-fluoropyridin-3-yl)-6-fluoropyrazolo[1,5-a]pyrimidine-3-carboxamide], the “Cisplatin Sensitization Assay” value was “+++ (Cisplatin sensitization value of <0.02 μM)”.

For `Nc1nn2cc(F)cnc2c1C(=O)Nc1cncc(F)c1N1CCC(C(=O)N2CC(N3CCCC3)C2)CC1` [I-G-43, 2-amino-6-fluoro-N-(5-fluoro-4-(4-(3-(pyrrolidin-1-yl)azetidine-1-carbonyl)piperidin-1-yl)pyridin-3-yl)pyrazolo[1,5-a]pyrimidine-3-carboxamide], the “Cisplatin Sensitization Assay” value was “+++ (Cisplatin sensitization value of <0.02 μM)”.

Consider `Nc1nn2cc(F)cnc2c1C(=O)Nc1cncc(F)c1N1CCC(C(=O)N2CC3CCC(C2)N3)CC1` [I-G-44, N-(4-(4-(3,8-diazabicyclo[3.2.1]octane-3-carbonyl)piperidin-1-yl)-5-fluoropyridin-3-yl)-2-amino-6-fluoropyrazolo[1,5-a]pyrimidine-3-carboxamide], for which the “Cisplatin Sensitization Assay” value was “+++ (Cisplatin sensitization value of <0.02 μM)”.

`C[C@@H]1CN(C(=O)C2CCN(c3c(F)cncc3NC(=O)c3c(N)nn4cc(F)cnc34)CC2)CCN1` [I-G-45, (R)-2-amino-6-fluoro-N-(5-fluoro-4-(4-(3-methylpiperazine-1-carbonyl)piperidin-1-yl)pyridin-3-yl)pyrazolo[1,5-a]pyrimidine-3-carboxamide]: the “Cisplatin Sensitization Assay” value is listed as “+++ (Cisplatin sensitization value of <0.02 μM)”.

With `Nc1nn2cc(F)cnc2c1C(=O)Nc1cncc(F)c1N1CCC(C(=O)N2CCN3CCC2C3)CC1` (stereo not shown) [I-G-46, N-(4-(4-(1,4-diazabicyclo[3.2.1]octane-4-carbonyl)piperidin-1-yl)-5-fluoropyridin-3-yl)-2-amino-6-fluoropyrazolo[1,5-a]pyrimidine-3-carboxamide], the “Cisplatin Sensitization Assay” value is reported as “+++ (Cisplatin sensitization value of <0.02 μM)”.

As to `C[C@H]1CN(C(=O)C2CCN(c3c(F)cncc3NC(=O)c3c(N)nn4cc(F)cnc34)CC2)CCN1C` [I-G-47, (S)-2-amino-N-(4-(4-(3,4-dimethylpiperazine-1-carbonyl)piperidin-1-yl)-5-fluoropyridin-3-yl)-6-fluoropyrazolo[1,5-a]pyrimidine-3-carboxamide], the “Cisplatin Sensitization Assay” value was “+++ (Cisplatin sensitization value of <0.02 μM)”.

For the compound `Nc1nn2cc(F)cnc2c1C(=O)Nc1cncc(Cl)c1N1CCC(C(=O)N2CCNCC2)CC1` [I-G-48, 2-amino-N-(5-chloro-4-(4-(piperazine-1-carbonyl)piperidin-1-yl)pyridin-3-yl)-6-fluoropyrazolo[1,5-a]pyrimidine-3-carboxamide], the “Cisplatin Sensitization Assay” value was “+++ (Cisplatin sensitization value of <0.02 μM)”.

For `Nc1nn2cc(F)cnc2c1C(=O)Nc1cncc(F)c1N1CCC(C(=O)N2CC(N3CCC3)C2)CC1` [I-G-49, N-(4-(4-([1,3′-biazetidine]-1′-carbonyl)piperidin-1-yl)-5-fluoropyridin-3-yl)-2-amino-6-fluoropyrazolo[1,5-a]pyrimidine-3-carboxamide], the “Cisplatin Sensitization Assay” value is “+++ (Cisplatin sensitization value of <0.02 μM)”.

As to `C[C@@H]1CN(C(=O)C2CCN(c3c(F)cncc3NC(=O)c3c(N)nn4cc(F)cnc34)CC2)CCN1C` [I-G-50, (R)-2-amino-N-(4-(4-(3,4-dimethylpiperazine-1-carbonyl)piperidin-1-yl)-5-fluoropyridin-3-yl)-6-fluoropyrazolo[1,5-a]pyrimidine-3-carboxamide], the “Cisplatin Sensitization Assay” value is given as “+++ (Cisplatin sensitization value of <0.02 μM)”.

For `Nc1nn2cc(F)cnc2c1C(=O)Nc1cncc(F)c1N1CCC(C(=O)N2CC3CNCC3C2)CC1` (stereo not shown) [I-G-51, 2-amino-6-fluoro-N-(5-fluoro-4-(4-(octahydropyrrolo[3,4-c]pyrrole-2-carbonyl)piperidin-1-yl)pyridin-3-yl)pyrazolo[1,5-a]pyrimidine-3-carboxamide], the “Cisplatin Sensitization Assay” value is given as “+++ (Cisplatin sensitization value of <0.02 μM)”.
